Measurements taken from ChEMBL document CHEMBL1130946, “Highly efficient and versatile synthesis of libraries of constrained beta-strand mimetics” (Bioorg Med Chem Lett, 1998).

These compounds were tested against Kallikrein-1 (Homo sapiens, UniProt P06870) (assay: Compound was evaluated for its inhibitory activity against Kallikrein).
Kallikrein-1, sequence (P06870 whole entry): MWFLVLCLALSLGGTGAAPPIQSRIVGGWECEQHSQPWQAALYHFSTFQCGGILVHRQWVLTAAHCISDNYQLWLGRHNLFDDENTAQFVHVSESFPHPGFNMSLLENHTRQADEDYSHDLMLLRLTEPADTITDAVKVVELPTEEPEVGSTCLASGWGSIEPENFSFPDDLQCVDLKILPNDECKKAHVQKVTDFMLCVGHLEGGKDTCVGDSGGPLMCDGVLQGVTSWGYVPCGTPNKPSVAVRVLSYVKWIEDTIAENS

| Ki | Structure (SMILES) |
| --- | --- |
| 31 nM | CC1(C)C2CC3C(=CC(C(=O)NC(CCCCN)C(=O)C(=O)NCCc4ccc(C(N)=O)cc4)n4c(=O)n(Cc5ccc(Cl)c(Cl)c5)c(=O)n43)C1C2 (stereo not drawn) |
| 21 nM | COC(=O)C1C(CCc2ccccc2)=CC(C(=O)NC(CCCCN)C(=O)C(=O)NCCc2ccc(C(N)=O)cc2)n2c(=O)n(Cc3cc(F)ccc3F)c(=O)n21 (stereo not drawn) |

Each compound was assayed against Tryptase (Homo sapiens, UniProt Q9BZJ3+Q15661+Q9NRR2) (assay: Compound was evaluated for its binding affinity to the tryptase).
Format: protein assay

| Ki | Structure (SMILES) |
| --- | --- |
| 5.9 nM | CC1=CC(C(=O)NC(CCCCN)C(=O)C(=O)NCCc2ccc(C(N)=O)cc2)n2c(=O)n(C(c3ccccc3)c3ccccc3)c(=O)n2C1 (stereo not drawn) |

The compounds below were run against Prothrombin (Homo sapiens, UniProt P00734) (assay: Compound was evaluated for its binding affinity to the thrombin).

| Ki | Structure (SMILES) |
| --- | --- |
| 0.2 nM | CCCCC1(CCCC)C(=O)N2CC(C)=CC(C(=O)NC(CCCCN)C(=O)C(=O)NCCc3ccc(C(N)=O)cc3)N2C1=O (stereo not drawn) |
| 0.3 nM | NCCCCC(NC(=O)C1C=CCn2c(=O)n(CC(c3ccccc3)c3ccccc3)c(=O)n21)C(=O)C(=O)NCCc1ccc(C(N)=O)cc1 (stereo not drawn) |
| 5.09 nM | CC1=CC(C(=O)NC(CCCCN)C(=O)C(=O)NCCc2ccc(C(N)=O)cc2)N2C(=O)C(CC(C)C)(CC(C)C)C(=O)N2C1 (stereo not drawn) |
| 1.89 nM | CC1=CC(C(=O)NC(CCCCN)C(=O)C(=O)NCCc2ccc(C(N)=O)cc2)N2C(=O)C(Cc3ccccc3)(Cc3ccccc3)C(=O)N2C1 (stereo not drawn) |
| 0.035 nM | CC1=CC(C(=O)NC(CCCCN)C(=O)C(=O)NCCc2ccc(C(N)=O)cc2)n2c(=O)n(CC(c3ccccc3)c3ccccc3)c(=O)n2C1 (stereo not drawn) |
| 1.58 nM | CC1=CC(C(=O)NC(CCCCN)C(=O)C(=O)NCc2ccc(C(N)=O)cc2)N2C(=O)C(N)(Cc3ccccc3)C(=O)N2C1 (stereo not drawn) |

| Structure (SMILES) | Ki |
| --- | --- |
| C=CCC1(CC=C)C(=O)N2CC(C)=CC(C(=O)NC(CCCCN)C(=O)C(=O)NCCc3ccc(C(N)=O)cc3)N2C1=O (stereo not drawn) | 18 nM |
| CCC1(N)C(=O)N2C(Cc3ccccc3)C=CC(C(=O)NC(CCCCN)C(=O)C(N)=O)N2C1=O (stereo not drawn) | 4.33 nM |

What follows are compounds tested against Serine protease 1 (Homo sapiens, UniProt P07477) (assay: Compound was evaluated for its binding affinity to the trypsin enzyme).
Serine protease 1, sequence (P07477 whole entry): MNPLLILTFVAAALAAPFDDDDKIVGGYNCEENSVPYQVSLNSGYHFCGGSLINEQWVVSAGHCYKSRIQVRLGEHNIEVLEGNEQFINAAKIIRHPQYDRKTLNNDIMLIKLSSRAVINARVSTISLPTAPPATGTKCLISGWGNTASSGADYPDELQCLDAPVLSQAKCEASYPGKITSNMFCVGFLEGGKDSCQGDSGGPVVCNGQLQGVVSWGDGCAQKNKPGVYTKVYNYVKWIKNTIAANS

| Ki | Structure (SMILES) |
| --- | --- |
| 0.43 nM | CC(C)CCn1c(=O)n2n(c1=O)C(C(=O)NC(CCCCN)C(=O)C(=O)NCCc1ccc(C(N)=O)cc1)C=CC2CC(C)C (stereo not drawn) |
| 0.28 nM | COc1ccc(-n2c(=O)n3n(c2=O)C(C(=O)NC(CCCCN)C(=O)C(=O)NCCc2ccc(C(N)=O)cc2)C=CC3CC(C)C)cc1 (stereo not drawn) |
